Laboratory results taken from patent EP0072532A1, “5(6)-Phenyl-sulfonyloxy-benzimidazole derivatives, process for their production, pharmaceutical compositions containing them and their use against liver disorders” (priority 1981, dated 1983).
Like-named read-outs stand apart in the source and are kept apart here.

What was measured:
Fasciola hepatica [1] = experiment: Chemotherapeutic test against adult liver flukes in artificially infected sheep (egg count reduction / killed flukes), oral application; format: in vivo, Schaf
Text: (§1) Zur Feststellung der Wirkung der erfindungsgemäßen Verbindungen gegen Fasciolide wurden chemotherapeutische Untersuchungen bei ca. 250 g schweren Ratten, bei 2 - 3,5 kg schweren Kaninchen oder an ca. 25 - 30 kg schweren Schaflämmern ausgeführt. Die Versuchstiere wurden mit 15, mit 50 bzw. mit 350 Metazerkarien von Fasciola hepatica artifiziell oral infiziert. Nach Ablauf der Präpatenzperiode (Zeit zwischen Infektion und Geschlechtsreife der Parasiten mit beginnender Ausscheidung von Vermehrungsprodukten) wurde der Parasitenbefall durch Kotuntersuchungen gesichert. Der qualitativ-quantitative Nachweis von Eiern erfolgte nach der Telemann-Anreicherung (Deutsche Medizinische Wochenschrift "34: 1510, 1908).
(§2) Unmittelbar nach der Bestimmung der Eizahl pro Gramm Kot wurde die Behandlung der Versuchstiere (im allgemeinen 3 - 4 Tiere pro Wirkstoff, mindestens aber zwei) vorgenommen. Den Tieren wurde oral eine Suspension von unterschiedlicher Wirkstoffmenge in jeweils festgelegten Volumen (Ratte: 0,5 ml/Tier, Kaninchen: 2 ml/Tier, Schaf: 10 ml/Tier) in einer Tylose-Suspension appliziert. Jeweils am 7., 14. und 28. Tag nach der Behandlung wurde wiederum nach der vorstehend angegebenen Methode die Eizahl pro Gramm Kot ermittelt und die prozentuale Abnahme im Vergleich zum Ausgangswert vor der Behandlung und in Vergleich zu unbehandelten Kontrolltieren errechnet.
(§3) Mit einigen erfindungsgemäßen Verbindungen wurden außerdem beim Fasciola-Befall noch eine zusätzliche Prüftechnik angewandt: Nach Abschluß der Präpatenzperiode wurde bei Fasciola-positiven Schafen ein künstlicher Gallengang geschaffen, der am Ausgang der Gallenblase ein Sieb enthielt, so daß die nach der Behandlung abgetöteten Leberegel in der Gallenblase aufgefangen werden konnten. Vier bis sieben Tage nach der Behandlung wurden die so operierten und dann behandelten Schafe getötet, die abgetöteten Leberegel in der Gallenblase so wie noch eventuell in der Leber vorhandene Leberegel gezählt und von der gesamten Wurmbürde der Prozentsatz der abgetöteten Parasiten berechnet. Bei ausgewählten Substanzen wurden über die Kotuntersuchung hinaus auch die behandelten Tiere seziert und die Leber auf eine eventuelle Rest-Wurmbürde von Fasciola hepatica untersucht.

Fasciola hepatica [2] = experiment: Chemotherapeutic test against adult liver flukes in artificially infected rabbits (reduction of egg count per gram faeces), oral application; format: in vivo; conditions: Kaninchen
Text: as §1, with “gesichert.” for “gesichert. Der qualitativ-quantitative Nachweis von Eiern erfolgte nach der Telemann-Anreicherung (Deutsche Medizinische Wochenschrift "34: 1510, 1908).”
as §2, §3

in vivo = conditions: sheep, quotient of Dosis tolerata maxima and applied dose, read-out: Sicherheits-faktor
Text: Eine einmalige Verabreichung der erfindungsgemäßen Wirkstoffe in den angegebenen Dosierungen führt zu einem völligen Aufhören der Eiausscheidung und einer nahezu 100 %igen Befreiung der Tiere von Fasciola hepatica. Alle Dosierungen wurden von den Tieren ohne Nebenerscheinungen vertragen. Dieses wird durch den Sicherheitsfaktor unterstrichen, der wesentlich günstiger ist als bei den zum Vergleich herangezogenen Wirkstoffen
Der Sicherheitsfaktor gibt den Quotienten aus Dosis tolerate maxima und angewandter Dosis an. Die Ergebnisse dieser Versuche sind in der nachstehenden Tabelle zusammengestellt.

Fasciola hepatica [3] = experiment: Chemotherapeutic test against adult liver flukes in artificially infected rats (reduction of egg count per gram faeces), oral application; format: in vivo; conditions: Ratte
Text: as §1, §2, §3

[4] = 75 mg/kg peroral, adult liver flukes

Row | Compound | Wirkung % (Fasciola hepatica [1]; Schaf, 1,5 mg/kg peroral) | Wirkung % (Fasciola hepatica [1]; Schaf, 3,0 mg/kg peroral) | Wirkung % (Fasciola hepatica [2]; 4 mg/kg peroral, death printed instead of an efficacy value) | selectivity ratio (in vivo; applied dose 3,0 mg/kg (Schaf)) | Wirkung % (Fasciola hepatica [3]; 4 mg/kg peroral) | Wirkung % (Fasciola hepatica [3]; 8 mg/kg peroral) | Wirkung % (Fasciola hepatica [1]; Schaf, 7,5 mg/kg peroral) | Wirkung % (Fasciola hepatica [1]; Schaf, 10,0 mg/kg peroral) | Wirkung % (Fasciola hepatica [2]; [4]) | Wirkung % (Fasciola hepatica [2]; <50 mg/kg peroral, adult liver flukes) | Wirkung % (Fasciola hepatica [3]; 50 mg/kg peroral) | Wirkung % (Fasciola hepatica [3]; 75 mg/kg peroral) | Wirkung % (Fasciola hepatica [1]; Schaf, 3,75 mg/kg peroral) | Wirkung % (Fasciola hepatica [2]; 50 mg/kg peroral, adult liver flukes) | selectivity ratio (in vivo; applied dose 3,75 mg/kg (Schaf)) | selectivity ratio (in vivo; applied dose 7,5 mg/kg (Schaf)) | Wirkung % (Fasciola hepatica [3]; 135 mg/kg peroral) | Wirkung % (Fasciola hepatica [3]; 200 mg/kg peroral)
1 | O=[N+]([O-])c1cc(Cl)cc(-c2cc(Cl)cc([N+](=O)[O-])c2O)c1O [Niclofolan, 5,5'-Dichlor-2,2`-dihydroxy-3,3'-dinitro-phenyl] | <50% | >90% | Exitus | 4.4 | 80% | 90% |  |  |  |  |  |  |  |  |  |  |  | 
2 | CSc1nc2cc(OS(=O)(=O)c3cccc(C(F)(F)F)c3)ccc2[nH]1 [Beispiel 1, 5(6)-(3-Trifluormethyl-phenylsulfonyloxy)-2-methylmercapto-benzimidazol] |  |  |  |  |  |  | >95% | 100% | 100% | 100% | 80% | 100% |  |  |  |  |  | 
3 | CC(=O)Oc1c(I)cc(I)cc1C(=O)Nc1ccc(Cl)cc1 [Clioxanide, 2-Acetoxy-4-chlor-3,5-dijod-benzanilid] |  |  |  |  |  |  | >90% |  | 0% |  |  |  | ca.50% | 0% | 30 | 15 | 0% | 0%
